{"source": "patent US12545944B2", "about": "“Method of detection” (priority 2017, dated 2026)", "key": {"[1]": {"details": "cited from earlier work"}, "[2]": {"test_system": "carbapenemase-producing E. coli strains", "experiment": "Colistin MIC by broth microdilution (BMD), CLSI/EUCAST", "type": "cell-based, Escherichia coli"}}, "data": [{"compound": "COCCOC", "note": "[1,2-dimethoxy-ethane (glyme, DME), 1,2-dimethoxy-ethane]", "values": [{"measurement": "Solubility in water", "setting": "[1]", "value": "Miscible"}]}, {"compound": "CC(C)O", "note": "[2-propanol]", "values": [{"measurement": "Solubility in water", "setting": "[1]", "value": "Miscible"}]}, {"compound": "CN(C)P(N(C)C)N(C)C", "note": "[Hexamethyl-phosphorous triamide (HMPT), Hexamethylphosphorous triamide]", "values": [{"measurement": "Solubility in water", "setting": "[1]", "value": "Miscible"}]}, {"compound": "CN1CCCC1=O", "note": "[N-methyl-2-pyrrolidinone (NMP), N-methyl-2-pyrrolidinone]", "values": [{"measurement": "Solubility in water", "setting": "[1]", "value": 10, "unit": "g/100 g"}]}, {"compound": "Clc1ccccc1", "note": "[chlorobenzene]", "values": [{"measurement": "Solubility in water", "setting": "[1]", "value": 0.05, "unit": "g/100 g"}]}, {"compound": "C1CCCCC1", "note": "[cyclohexane]", "values": [{"measurement": "Solubility in water", "setting": "[1]", "value": "<0.1", "unit": "g/100 g"}]}, {"compound": "COCCOCCOC", "note": "[diethylene glycol dimethyl ether]", "values": [{"measurement": "Solubility in water", "setting": "[1]", "value": "Miscible"}]}, {"compound": "C[S+](C)[O-]", "note": "[dimethyl sulfoxide (DMSO), dimethyl sulfoxide]", "values": [{"measurement": "Solubility in water", "setting": "[1]", "value": 25.3, "unit": "g/100 g"}]}, {"compound": "CCO", "note": "[ethanol]", "values": [{"measurement": "Solubility in water", "setting": "[1]", "value": "Miscible"}]}, {"compound": "CCOC(C)=O", "note": "[ethyl acetate]", "values": [{"measurement": "Solubility in water", "setting": "[1]", "value": 8.7, "unit": "g/100 g"}]}, {"compound": "OCC(O)CO", "note": "[glycerin]", "values": [{"measurement": "Solubility in water", "setting": "[1]", "value": "Miscible"}]}, {"compound": "CCCCCC", "note": "[hexane]", "values": [{"measurement": "Solubility in water", "setting": "[1]", "value": 0.014, "unit": "g/100 g"}]}, {"compound": "Colistin (Polymyxin E)", "values": [{"measurement": "Colistin MIC", "setting": "[2]; KPC-2 producing E. coli, N=1, mcr-1/-2 PCR negative", "value": 0.25, "unit": "µg/mL"}, {"measurement": "Colistin MIC", "setting": "[2]; KPC-3 producing E. coli, N=1, mcr-1/-2 PCR negative", "value": 0.25, "unit": "µg/mL"}, {"measurement": "Colistin MIC", "setting": "[2]; NDM-1 producing E. coli, N=1, mcr-1/-2 PCR negative", "value": 0.5, "unit": "µg/mL"}, {"measurement": "Colistin MIC", "setting": "[2]; NDM-1 producing E. coli, N=1, mcr-1 PCR positive, PRR 1.73 ± 0.23", "value": 4, "unit": "µg/mL"}, {"measurement": "Colistin MIC", "setting": "[2]; NDM-1 producing E. coli, N=1, mcr-1 PCR positive, PRR 2.34 ± 0.12", "value": 4, "unit": "µg/mL"}, {"measurement": "Colistin MIC", "setting": "[2]; NDM-1 producing E. coli, N=3, mcr-1/-2 PCR negative", "value": 0.25, "unit": "µg/mL"}, {"measurement": "Colistin MIC", "setting": "[2]; NDM-5 producing E. coli, N=2, mcr-1/-2 PCR negative", "value": 0.25, "unit": "µg/mL"}, {"measurement": "Colistin MIC", "setting": "[2]; NDM-5 producing E. coli, N=3, mcr-1/-2 PCR negative", "value": 0.5, "unit": "µg/mL"}, {"measurement": "Colistin MIC", "setting": "[2]; OXA-48 producing E. coli, N=1, mcr-1/-2 PCR negative", "value": 1, "unit": "µg/mL"}, {"measurement": "Colistin MIC", "setting": "[2]; OXA-48 producing E. coli, N=1, mcr-1 PCR positive, PRR 1.29 ± 0.63", "value": 4, "unit": "µg/mL"}, {"measurement": "Colistin MIC", "setting": "[2]; OXA-48 producing E. coli, N=26, mcr-1/-2 PCR negative", "value": 0.5, "unit": "µg/mL"}, {"measurement": "Colistin MIC", "setting": "[2]; OXA-48 producing E. coli, N=27, mcr-1/-2 PCR negative", "value": 0.25, "unit": "µg/mL"}, {"measurement": "Colistin MIC", "setting": "[2]; OXA-181 + NDM-5 producing E. coli, N=1, mcr-1/-2 PCR negative", "value": 0.25, "unit": "µg/mL"}, {"measurement": "Colistin MIC", "setting": "[2]; OXA-181 producing E. coli, N=4, mcr-1/-2 PCR negative", "value": 0.25, "unit": "µg/mL"}, {"measurement": "Colistin MIC", "setting": "[2]; OXA-204 producing E. coli, N=1, mcr-1/-2 PCR negative", "value": 0.25, "unit": "µg/mL"}, {"measurement": "Colistin MIC", "setting": "[2]; OXA-244 producing E. coli, N=1 (first line), mcr-1/-2 PCR negative", "value": 0.25, "unit": "µg/mL"}, {"measurement": "Colistin MIC", "setting": "[2]; OXA-244 producing E. coli, N=1 (second line), mcr-1/-2 PCR negative", "value": 0.5, "unit": "µg/mL"}, {"measurement": "Colistin MIC", "setting": "[2]; VIM-1 producing E. coli, N=1, mcr-1/-2 PCR negative", "value": 0.5, "unit": "µg/mL"}, {"measurement": "Colistin MIC", "setting": "[2]; VIM-4 producing E. coli, N=1, mcr-1/-2 PCR negative", "value": 0.25, "unit": "µg/mL"}, {"measurement": "MICs of colistin", "setting": "[2]; two NDM-1 and one OXA-48 producer, resistant to colistin, positive for the mcr-1 gene", "value": 4, "unit": "mg/L"}]}]}
